# According to US11459324B2, “O-glycoprotein-2-acetamido-2-deoxy-3-D-glycopyranosidase inhibitors” (BIOGEN MA INC., priority 2018, dated 2022):
# Target: T1, Recombinant full length human OGA enzyme (Homo sapiens, UniProt O60502)
# T1 construct: Recombinant full length human OGA enzyme was purchased from Origene; purchased Origene
# T1 sequence (O60502 1-916): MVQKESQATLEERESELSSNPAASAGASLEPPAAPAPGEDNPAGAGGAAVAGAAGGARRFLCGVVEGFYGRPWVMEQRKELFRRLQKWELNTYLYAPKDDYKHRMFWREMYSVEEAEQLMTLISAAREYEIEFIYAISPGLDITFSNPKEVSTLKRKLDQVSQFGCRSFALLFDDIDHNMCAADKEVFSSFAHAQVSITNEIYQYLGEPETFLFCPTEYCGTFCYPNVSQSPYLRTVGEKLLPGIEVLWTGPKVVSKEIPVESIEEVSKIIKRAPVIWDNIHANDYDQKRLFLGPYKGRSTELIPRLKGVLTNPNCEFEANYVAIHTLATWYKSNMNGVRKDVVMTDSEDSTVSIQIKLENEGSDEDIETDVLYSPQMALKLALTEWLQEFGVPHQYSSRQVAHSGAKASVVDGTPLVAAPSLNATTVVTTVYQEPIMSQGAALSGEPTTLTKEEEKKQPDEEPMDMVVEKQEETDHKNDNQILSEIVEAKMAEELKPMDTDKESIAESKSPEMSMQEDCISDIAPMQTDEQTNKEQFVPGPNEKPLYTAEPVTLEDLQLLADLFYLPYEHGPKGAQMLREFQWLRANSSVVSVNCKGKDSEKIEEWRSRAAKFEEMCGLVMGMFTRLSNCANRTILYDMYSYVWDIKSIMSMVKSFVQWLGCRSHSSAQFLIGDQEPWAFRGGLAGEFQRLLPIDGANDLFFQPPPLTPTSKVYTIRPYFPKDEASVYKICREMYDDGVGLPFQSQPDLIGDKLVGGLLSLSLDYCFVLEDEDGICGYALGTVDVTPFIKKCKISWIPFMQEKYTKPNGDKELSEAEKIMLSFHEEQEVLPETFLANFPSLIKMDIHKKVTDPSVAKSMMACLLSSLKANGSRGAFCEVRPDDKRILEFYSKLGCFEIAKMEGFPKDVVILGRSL
# Experiment: OGA Enzyme Inhibition Biochemical Assay
# Details: 1 nM OGA, 100 μM 4-MUGlcNAc (Km), pH 6.4, 90 minutes at room temperature, 10-point dose-response from 20 μM
# Procedure, shortened: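 Full-length human OGA at 1 nM with 100 μM 4-MUGlcNAc (Km) in McIlvaine buffer pH 6.4 plus 0.01% BSA, 90 min at room temperature, then glycine pH 10 quench. Fluorescence read at Ex 355/Em 460 nm. 10-point, 4-fold dose-response from 20 μM, 4-parameter variable-slope fit.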
row,IC50 [nM],Structure (SMILES)
1,79,"CC(=O)N(C)c1nc(F)c(CN2CC[C@H](Cc3ncc(F)cn3)C2)s1 [Example 3-37, (R)-N-(4-fluoro-5-((3-((5-fluoropyrimidin-2-yl)methyl)pyrrolidin-1-yl)methyl)thiazol-2-yl)-N-methylacetamide]"
2,27,"CC(=O)Nc1ncc(CN2CC[C@H](C)[C@@H](Cc3ncc(F)cn3)C2)s1 (single isomer, unassigned) [Example 2-38]"
3,8,"COc1nc(C[C@H]2CCCN(Cc3cnc(NC(C)=O)s3)C2)ncc1F [Example 2-6, (R)-N-(5-((3-((5-fluoro-4-methoxypyrimidin-2-yl)methyl)piperidin-1-yl)methyl)thiazol-2-yl)acetamide]"
4,450,"CC(=O)Nc1ncc(CN2CC(Cc3ncc(F)cn3)CC(F)(F)C2)s1 (stereo not drawn) [Example 2-13, N-(5-((3,3-difluoro-5-((5-fluoropyrimidin-2-yl)methyl)piperidin-1-yl)methyl)thiazol-2-yl)acetamide]"
5,10,"CC(=O)Nc1nc(F)c(CN2CC[C@H](Cc3cc(C)nc(C)n3)C2)s1 [Example 3-29, (R)-N-(5-((3-((2,6-dimethylpyrimidin-4-yl)methyl)pyrrolidin-1-yl)methyl)-4-fluorothiazol-2-yl)acetamide]"
6,29,"CC(=O)Nc1ncc([C@@H](C)N2CCC[C@H](Cc3ncc(F)cn3)C2)s1 (single isomer, unassigned) [Example 2-10]"
7,< 1,"COc1cc(C[C@H]2CCCN(Cc3sc(NC(C)=O)nc3F)C2)ncn1 [Example 3-22, (R)-N-(4-fluoro-5-((3-((6-methoxypyrimidin-4-yl)methyl)piperidin-1-yl)methyl)thiazol-2-yl)acetamide]"
8,920,"CC(=O)Nc1ncc(CN2CC(Cc3ncc(F)cn3)C(F)(F)C2)s1 (stereo not drawn) [Example 3-3, N-(5-((3,3-difluoro-4-((5-fluoropyrimidin-2-yl)methyl)pyrrolidin-1-yl)methyl)thiazol-2-yl)acetamide]"
9,8.9,"COc1cc(C[C@H]2CCN(Cc3sc(NC(C)=O)nc3F)C2)ccn1 [Example 3-32, (S)—N-(4-fluoro-5-((3-((2-methoxypyridin-4-yl)methyl)pyrrolidin-1-yl)methyl)thiazol-2-yl)acetamide]"
10,270,CC(=O)Nc1ncc(CN2CC(Cc3ncc(F)cn3)CC[C@@H]2C(F)(F)F)s1 (stereo partly drawn) [Example 2-50]
11,6.2,"CC(=O)Nc1nc(F)c(CN2CC[C@H](Cc3ncc(F)cn3)C2)s1 [Example 3-26, (R)-N-(4-fluoro-5-((3-((5-fluoropyrimidin-2-yl)methyl)pyrrolidin-1-yl)methyl)thiazol-2-yl)acetamide]"
12,9.2,"CC(=O)Nc1nc(F)c(CN2C[C@@H](Cc3ncc(F)cn3)CC[C@@H]2C)s1 [Example 2-53, N-(4-fluoro-5-(((2S,5R)-5-((5-fluoropyrimidin-2-yl)methyl)-2-methylpiperidin-1-yl)methyl)thiazol-2-yl)acetamide]"
13,1,"CC(=O)Nc1ncc([C@H](C)N2CCC[C@H](Cc3ncc(F)cn3)C2)s1 (single isomer, unassigned) [Example 2-11]"
14,7,"CC(=O)Nc1ncc(CN2CC[C@H](Cc3ncc(F)cn3)C2)s1 (single isomer, unassigned) [Example 2-1]"
15,19,"CC(=O)N(C)c1ncc(CN2CCC[C@H](Cc3ncc(F)cn3)C2)s1 [Example 3-16, N-[5-[[(3R)-3-[(5-fluoropyrimidin-2-yl)methyl]-1-piperidyl]methyl]thiazol-2-yl]-N-methyl-acetamide]"

# Further lines, the compound ahead of its results:
row,Structure (SMILES),IC50 [nM]
1,"CC(=O)Nc1ncc(CN2CC(Cc3noc(C)n3)CC[C@@H]2C)s1 (stereo partly drawn) [Example 4-17, N-(5-(((2S)-2-methyl-5-((5-methyl-1,2,4-oxadiazol-3-yl)methyl)piperidin-1-yl)methyl)thiazol-2-yl)acetamide]",< 1
2,"COc1cc(C[C@H]2C[C@H](C)N(Cc3sc(NC(C)=O)nc3F)C2)ncn1 [Example 3-46, N-(4-fluoro-5-(((2S,4R)-4-((6-methoxypyrimidin-4-yl)methyl)-2-methylpyrrolidin-1-yl)methyl)thiazol-2-yl)acetamide]",< 1
3,"CC(=O)Nc1ncc(CN2C[C@H](Cc3noc(C)n3)C[C@@H]2C)s1 [Example 4-14, N-(5-(((2S,4S)-2-methyl-4-((5-methyl-1,2,4-oxadiazol-3-yl)methyl)pyrrolidin-1-yl)methyl)thiazol-2-yl)acetamide]",3.8
4,"CC(=O)Nc1ncc(CN2CCCC(Cn3cc(C(F)(F)F)cn3)C2)s1 (stereo not drawn) [Example 4-3, N-(5-((3-((4-(trifluoromethyl)-1H-pyrazol-1-yl)methyl)piperidin-1-yl)methyl)thiazol-2-yl)acetamide]",960
5,"COc1cc(C[C@@H]2C[C@H](C)N(Cc3sc(NC(C)=O)nc3F)C2)ncn1 [Example 3-44, N-(4-fluoro-5-(((2S,4S)-4-((6-methoxypyrimidin-4-yl)methyl)-2-methylpyrrolidin-1-yl)methyl)thiazol-2-yl)acetamide]",< 1
6,"CC(=O)Nc1ncc(CN2CCCC(Cc3ncc(C)s3)C2)s1 (stereo not drawn) [Example 1-35, N-(5-((3-((5-methylthiazol-2-yl)methyl)piperidin-1-yl)methyl)thiazol-2-yl)acetamide]",5
7,"CC(=O)Nc1ncc(CN2CCC[C@H](Cc3ncccn3)C2)s1 [Example 3-7, (R)-N-(5-((3-(pyrimidin-2-ylmethyl)piperidin-1-yl)methyl)thiazol-2-yl)acetamide]",2
8,"COc1nccc(CC2CCCN(Cc3cnc(NC(C)=O)s3)C2)c1C (stereo not drawn) [Example 2-3, N-(5-((3-((2-methoxy-3-methylpyridin-4-yl)methyl)piperidin-1-yl)methyl)thiazol-2-yl)acetamide]",2
9,"CC(=O)Nc1ncc(CN2CCC[C@@H]([C@@H](C)c3ncc(F)cn3)C2)s1 (single isomer, unassigned) [Example 2-29]",1
10,"CC(=O)Nc1ncc(CN2CCCC(Cc3cccc(F)c3)C2)s1 (stereo not drawn) [Example 1-5, N-(5-((3-(3-fluorobenzyl)piperidin-1-yl)methyl)thiazol-2-yl)acetamide]",62
11,"COc1cccc(CC2CCN(Cc3cnc(NC(C)=O)s3)C2)c1 (stereo not drawn) [Example 1-14, N-(5-((3-(3-methoxybenzyl)pyrrolidin-1-yl)methyl)thiazol-2-yl)acetamide]",22
12,"CC(=O)Nc1ncc(CN2CC[C@H](Cc3ccc(F)c(F)c3)C2)s1 (stereo in doubt) [Example 4-26, N-(5-((3-(3,4-difluorobenzyl)pyrrolidin-1-yl)methyl)thiazol-2-yl)acetamide]",56
13,"COc1ccc(CC2CCN(Cc3cnc(NC(C)=O)s3)C2)cc1 (stereo not drawn) [Example 1-15, N-(5-((3-(4-methoxybenzyl)pyrrolidin-1-yl)methyl)thiazol-2-yl)acetamide]",46
14,"CC(=O)Nc1ncc(CN2CCCC(Cc3nc(C)cs3)C2)s1 (stereo not drawn) [Example 1-34, N-(5-((3-((4-methylthiazol-2-yl)methyl)piperidin-1-yl)methyl)thiazol-2-yl)acetamide]",5
15,"CC(=O)Nc1ncc(CN2CCCC(Cc3cccc(C)n3)C2)s1 (stereo not drawn) [Example 1-29, N-(5-((3-((6-methylpyridin-2-yl)methyl)piperidin-1-yl)methyl)thiazol-2-yl)acetamide]",2
16,"CCc1cc2c(CC3CCCN(Cc4cnc(NC(C)=O)s4)C3)ncnc2s1 (stereo not drawn) [Example 1-41, N-(5-((3-((6-ethylthieno[2,3-d]pyrimidin-4-yl)methyl)piperidin-1-yl)methyl)thiazol-2-yl)acetamide]",1
17,"COc1ccc(CC2CCN(Cc3cnc(NC(C)=O)s3)C2)nc1 (stereo not drawn) [Example 1-22, N-(5-((3-((5-methoxypyridin-2-yl)methyl)pyrrolidin-1-yl)methyl)thiazol-2-yl)acetamide]",100
18,"CC(=O)Nc1nc(F)c(CN2C[C@H](Cc3noc(C)n3)C[C@@H]2C)s1 (single isomer, unassigned) [Example 4-12 Peak 2]",< 1
19,"CC(=O)Nc1ncc(CN2CCCC(Cc3ccccn3)C2)s1 (stereo not drawn) [Example 1-2, N-(5-((3-(pyridin-2-ylmethyl)piperidin-1-yl)methyl)thiazol-2-yl)acetamide]",4
20,"CC(=O)Nc1ncc(CN2CCCC(Cc3ccncc3)C2)s1 (stereo not drawn) [Example 1-40, N-(5-((3-(pyridin-4-ylmethyl)piperidin-1-yl)methyl)thiazol-2-yl)acetamide]",4
21,"COc1cc(CC2CCCN(Cc3cnc(NC(C)=O)s3)C2)ccn1 (stereo not drawn) [Example 1-7, N-(5-((3-((2-methoxypyridin-4-yl)methyl)piperidin-1-yl)methyl)thiazol-2-yl)acetamide]",3
